Measurements taken from BindingDB's records for doi:10.1016/j.bmc.2013.02.037 (Chungnam National University, 2013).

Experiment: Inhibition interleukin-5 in mouse Y16 cells after 48 hrs by WST-1 assay

| IC50 [µM] | SMILES |
| --- | --- |
| > 30 | O=C(CCC1COc2cccc(OCC3CCCCC3)c2C1=O)c1ccc(Cl)c(Cl)c1 (centres undefined) |
| > 30 | COc1ccc(C(=O)CCC2COc3cccc(OCC4CCCCC4)c3C2=O)cc1 (centres undefined) |
| > 30 | O=C(CCc1coc2cccc(OCC3CCCCC3)c2c1=O)c1ccc2ccccc2c1 |
| > 30 | CC(C)(C)c1ccc(C(=O)CCc2coc3cccc(OCC4CCCCC4)c3c2=O)cc1 |
| 17 | O=c1c(CCC(O)c2ccc3ccccc3c2)coc2cccc(OCC3CCCCC3)c12 (centres undefined) |
| 16 | COc1ccc(C(=O)CCc2coc3cccc(OCC4CCCCC4)c3c2=O)cc1 |
| 15 | N#Cc1ccc(C(O)CCc2coc3cccc(OCC4CCCCC4)c3c2=O)cc1 (centres undefined) |
| 12 | O=c1c(CCC(O)c2ccccc2)coc2cccc(OCC3CCCCC3)c12 (centres undefined) |
| 7.9 | O=c1c(CCC(O)c2ccc(Cl)c(Cl)c2)coc2cccc(OCC3CCCCC3)c12 (centres undefined) |
| 6.5 | COc1ccc(C(O)CCc2coc3cccc(OCC4CCCCC4)c3c2=O)cc1 (centres undefined) |

Continued, compound first:

| SMILES | IC50 [µM] |
| --- | --- |
| O=c1c(CCC(O)c2ccc(C(F)(F)F)cc2)coc2cccc(OCC3CCCCC3)c12 (centres undefined) | > 30 |
| CC(C)(C)c1ccc(C(O)CCc2coc3cccc(OCC4CCCCC4)c3c2=O)cc1 (centres undefined) | > 30 |
| Cc1ccc(C(O)CCc2coc3cccc(OCC4CCCCC4)c3c2=O)cc1 (centres undefined) | > 30 |
| O=C(CCc1coc2cccc(OCC3CCCCC3)c2c1=O)c1ccc(C(F)(F)F)cc1 | > 30 |
| Cc1ccc(C(=O)CCc2coc3cccc(OCC4CCCCC4)c3c2=O)cc1 | > 30 |
| O=C(CCc1coc2cccc(OCC3CCCCC3)c2c1=O)c1ccccc1 | > 30 |
| O=C(CCc1coc2cccc(OCC3CCCCC3)c2c1=O)c1ccc(Cl)c(Cl)c1 | 22 |
| O=C(CCc1coc2cccc(OCC3CCCCC3)c2c1=O)c1ccc(F)cc1 | 20 |
| N#Cc1ccc(C(=O)CCc2coc3cccc(OCC4CCCCC4)c3c2=O)cc1 | 17 |
| O=C(CCc1coc2cccc(OCC3CCCCC3)c2c1=O)c1ccc(O)cc1 | 15 |
| O=C(CCc1coc2cccc(OCC3CCCCC3)c2c1=O)c1ccc(Cl)cc1 | 14 |
| O=c1c(CCC(O)c2ccc(F)cc2)coc2cccc(OCC3CCCCC3)c12 (centres undefined) | 9 |
| O=c1c(CCC(O)c2ccc(Cl)cc2)coc2cccc(OCC3CCCCC3)c12 (centres undefined) | 9 |
| O=c1c(CCC(O)c2ccc(O)cc2)coc2cccc(OCC3CCCCC3)c12 (centres undefined) | 4 |
